{"source": "ChEMBL document CHEMBL4339191", "about": "(J Med Chem, 2019)", "key": {"[1]": {"molecular_target": "T1, Aldo-keto reductase family 1 member C1 (Homo sapiens, UniProt Q04828)", "T1 sequence (Q04828 whole entry)": "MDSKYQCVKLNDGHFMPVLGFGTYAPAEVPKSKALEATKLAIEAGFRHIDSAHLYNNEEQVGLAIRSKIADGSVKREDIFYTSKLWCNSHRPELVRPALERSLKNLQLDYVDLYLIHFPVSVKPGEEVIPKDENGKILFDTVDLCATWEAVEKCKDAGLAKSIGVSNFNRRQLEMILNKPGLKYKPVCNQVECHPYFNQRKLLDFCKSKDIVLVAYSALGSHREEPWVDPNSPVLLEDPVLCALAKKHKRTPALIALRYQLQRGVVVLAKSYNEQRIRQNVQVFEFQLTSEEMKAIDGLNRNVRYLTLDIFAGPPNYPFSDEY", "assay": "Inhibition of recombinant human AKR1C1 expressed in Escherichia coli BL21 […] at 100 uM using S-tetralol as substrate in presence of NADP+ by UV-spectrophotometric method relative to control"}, "[2]": {"molecular_target": "T2, AKR1C2 (Homo sapiens, UniProt P52895)", "T2 sequence (P52895 whole entry)": "T1 sequence (Q04828 whole entry) with T38V, R47H, L54V, C87S, V151M, R170H, Q172L", "assay": "in vitro", "conditions": "probe S-tetralol; call rule not given here"}, "[3]": {"molecular_target": "T3, AKR1C1 (Homo sapiens, UniProt Q04828)", "T3 sequence (Q04828 whole entry)": "T1 sequence (Q04828 whole entry)", "assay": "in vitro", "conditions": "probe S-tetralol", "description": "Inhibition of recombinant human AKR1C1 expressed in Escherichia coli BL21 (D3) at 200 uM using S-tetralol as substrate in presence of NADP+ by UV-spectrophotometric method relative to control"}, "[4]": {"molecular_target": "T4, Aldo-keto reductase family 1 member C3 (Homo sapiens, UniProt P42330)", "T4 sequence (P42330 whole entry)": "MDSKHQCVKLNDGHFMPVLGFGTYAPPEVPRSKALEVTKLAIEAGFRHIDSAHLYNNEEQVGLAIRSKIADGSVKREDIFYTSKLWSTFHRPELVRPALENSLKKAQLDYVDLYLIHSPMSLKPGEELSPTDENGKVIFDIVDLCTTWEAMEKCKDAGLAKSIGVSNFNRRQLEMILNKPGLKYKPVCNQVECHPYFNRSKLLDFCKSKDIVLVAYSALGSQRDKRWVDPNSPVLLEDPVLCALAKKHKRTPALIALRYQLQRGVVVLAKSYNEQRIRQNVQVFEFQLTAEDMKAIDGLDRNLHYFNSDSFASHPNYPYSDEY", "description": "Inhibition of recombinant full-length human N-terminal His6-tagged AKR1C3 expressed in Escherichia coli BL21 (DE3) using phenanthrenequinone as substrate in presence of NADPH generating system"}}, "note": "Residue numbers refer to the chain shown, from its start.", "data": [{"smiles": "CC(C)=CCc1cc(/C=C/C(=O)O)cc(C(=O)NCc2ccc(N(C)C)cc2)c1", "values": [{"measurement": "inhibition (INH)", "setting": "[1]", "value": "Not Active"}]}, {"smiles": "CC(C)=CCc1cc(/C=C/C(=O)O)cc(C(=O)NCc2ccc(C)cc2)c1", "values": [{"measurement": "inhibition at 200 µM", "setting": "[2]", "value": 66.5, "unit": "%"}]}, {"smiles": "CC(C)=CCc1cc(/C=C/C(=O)O)cc(C(=O)NCc2cccc(OC(F)(F)F)c2)c1", "values": [{"measurement": "inhibition at 200 µM", "setting": "[3]", "value": 10.6, "unit": "%"}]}, {"smiles": "COc1ccc(CNC(=O)c2cc(/C=C/C(=O)O)cc(CC=C(C)C)c2)cc1", "values": [{"measurement": "inhibition (INH)", "setting": "[1]", "value": "Not Active"}]}, {"smiles": "CC/C=C\\C[C@H]1C(=O)CC[C@@H]1CC(=O)O", "note": "[JASMONIC ACID]", "values": [{"measurement": "Ki", "setting": "[4]", "value": 24, "unit": "µM"}]}]}
